In PubChem BioAssay (NCI):
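Five compound concentrations were applied to cells in 96-well plates for 48 hours; endpoints were derived by simple linear interpolation of the resulting dose-response curve. Abbreviation: GI50, concentration required for 50% inhibition of growth. At the TGI there is no net growth.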

How the values were obtained:
Assay in all cases: NCI-60 cell line screen, 48 h
[1] = tested on: HOP-62 NSCLC
[2] = tested on: NCI-H226 lung
[3] = tested on: OVCAR-4 ovarian
[4] = tested on: OVCAR-8 ovarian
[5] = tested on: SR leukemia
[6] = tested on: SW-620 colon
[7] = tested on: UACC-62 melanoma
[8] = tested on: HOP-92 NSCLC
[9] = tested on: SK-OV-3 ovarian

Row | Structure (SMILES) | TGI [1] [µM] | TGI [2] [µM] | TGI [3] [µM] | TGI [4] [µM] | TGI [5] [µM] | TGI [6] [µM] | TGI [7] [µM] | TGI [8] [µM] | TGI [9] [µM] | GI50 [1] [µM] | GI50 [8] [µM] | GI50 [2] [µM] | GI50 [3] [µM] | GI50 [4] [µM] | GI50 [9] [µM] | GI50 [6] [µM] | GI50 [7] [µM]
1 | Cc1ccc(-c2cc(-c3ccco3)nc(N)n2)o1 | > 100 | > 100 | > 100 | > 100 | > 100 | > 100 | > 100 | – | – | – | – | – | – | – | – | – | –
2 | Oc1c(Cl)c2nccnc2c2ccccc12 | – | > 100 | > 100 | > 100 | – | > 100 | > 100 | > 100 | > 100 | – | – | – | – | – | – | – | –
3 | CCOC(=O)c1ccc(NC2Oc3cc4c(cc3C(c3cc(OC)c(OC)c(OC)c3)C2C)OCO4)cc1 (stereo not drawn) | > 71.4 | 16 | > 64.7 | 33 | – | > 100 | 64.5 | 32.2 | > 21.1 | – | – | – | – | – | – | – | –
4 | CN(C)[C@@H]1C(=O)C(C(N)=O)=C(O)[C@@]2(O)C(=O)C3=C(O)c4c(O)cccc4C[C@H]3C[C@@H]12 | 4.21 | – | 3.26 | 9.52 | 6.05 | 9.84 | 3.14 | 5.19 | 3.96 | – | – | – | – | – | – | – | –
5 | COC(=O)/C(=C/c1ccc(OC)cc1)C(C(=O)O)=C(C)C | > 100 | > 100 | – | > 100 | > 100 | > 100 | > 100 | > 100 | > 100 | – | – | – | – | – | – | – | –
6 | c1cnc2c(c1)-n1cccc1C1(CCOCC1)NN2 | – | > 100 | > 100 | > 100 | > 100 | > 100 | – | > 100 | > 100 | – | – | – | – | – | – | – | –
7 | C=C1CC2CC[C@@]34C[C@@H]5O[C@@H]6C(O[C@H]7CC[C@H](CC(=O)OC8[C@@H](C)C9OC%10C[C@]%11(C[C@@H]%12O[C@@]%13(C[C@@H](C)[C@@H]%12O%11)C[C@H](C)[C@@H]%11OC%12CC(C(O)CO)OC%12C[C@@H]%11O%13)OC%10CC9O[C@H]8C[C@H]8O[C@@H](CC[C@@H]1O2)C[C@@H](C)C8=C)O[C@@H]7[C@@H]6O3)C5O4 (stereo partly drawn) | – | – | > 1.48 | 0.0305 | – | > 1.48 | > 1.48 | > 1.48 | – | 0.000174 | < 0.000148 | < 0.000148 | > 1.48 | < 0.000148 | < 0.000148 | < 0.000148 | < 0.000148
8 | O=C(NCCNCCO)N/N=C/c1cccc([N+](=O)[O-])c1 | > 100 | > 100 | > 100 | > 100 | – | > 100 | > 100 | > 100 | > 100 | – | – | – | – | – | – | – | –
9 | C=CCN1C(=O)CS/C1=N\NC(=O)c1c(C)nc2sccn12 | > 100 | > 100 | – | > 100 | > 100 | > 100 | > 100 | > 100 | > 100 | – | – | – | – | – | – | – | –
10 | O=C1Nc2ccccc2C(=O)OC(Cc2ccccc2)=Nc2ccccc21 | > 100 | > 100 | > 100 | > 100 | > 100 | > 100 | > 100 | – | > 100 | – | – | – | – | – | – | – | –
11 | C=C/C(C)=C/[C@H](C)C(=O)C[C@H](O)CC1CC(=O)NC(=O)C1 | > 91.1 | > 100 | > 100 | > 100 | – | > 100 | > 100 | > 89.6 | > 100 | – | – | – | – | – | – | – | –
12 | COc1ccc(-n2sc3ncc(-c4ccccc4)cc3c2=O)cc1 | > 100 | > 100 | 45.7 | > 100 | – | > 100 | > 100 | > 100 | > 100 | – | – | – | – | – | – | – | –
13 | O=S(=O)(O)c1cc(Cl)c(O)c2ncc(Cl)cc12 | > 100 | > 100 | > 100 | > 100 | > 100 | > 100 | > 100 | > 100 | – | – | – | – | – | – | – | – | –
14 | COc1cc2c(cc1O)[C@H](C)C(c1ccc(Cl)cc1)O2 (stereo partly drawn) | 68.2 | 70 | > 100 | – | – | 38 | 92.4 | 40.4 | > 100 | – | – | – | – | – | – | – | –
15 | N#CI1OC(=O)c2ccccc21 | > 100 | > 100 | > 100 | > 100 | > 100 | > 100 | > 100 | – | > 100 | – | – | – | – | – | – | – | –
16 | On1c(-c2ccccc2)c(-c2c(-c3ccccc3)n(O)c3ccccc23)c2ccccc21 | – | 64.7 | > 100 | > 100 | – | – | > 100 | – | 80.6 | – | – | – | – | – | – | – | –
17 | CS(=O)(=O)NNS(=O)(=O)c1ccc(Br)cc1 | > 100 | > 100 | > 100 | > 100 | – | > 100 | > 100 | > 100 | > 100 | – | – | – | – | – | – | – | –
18 | CCOC(=O)C1NCCc2c1[nH]c1ccccc21 (stereo not drawn) | > 10 | – | > 10 | > 10 | > 10 | > 10 | > 10 | > 10 | > 10 | – | – | – | – | – | – | – | –
19 | Cc1cc(-c2ccc(C(=O)C(Cl)(Cl)Cl)[nH]2)on1 | 24.8 | 62.9 | 70.1 | > 100 | – | > 100 | > 100 | > 100 | > 100 | – | – | – | – | – | – | – | –
20 | COC(=O)c1ccc(CN2CCc3c([nH]c4ccccc34)C2CO)o1 (stereo not drawn) | > 10 | – | > 10 | > 10 | > 10 | > 10 | > 10 | > 10 | > 10 | – | – | – | – | – | – | – | –
